Among the data in patent US8551999B2, “Heterocyclic compound and pharmaceutical composition thereof” (Otsuka Pharmaceutical Co., Ltd., priority 2007, dated 2013) are melting point values, retold here.

In general, melting point refers to the temperature of the solid-liquid transition. `Br.CC(C)Oc1ccc(CN2CCN(C(=O)c3cc4ccc(Oc5ccc(NC(=O)c6ccc(Cl)c(Cl)c6)cn5)cc4n3C)CC2)c(F)c1` [Example 265, 3,4-Dichloro-N-(6-{2-[4-(2-fluoro-4-isopropoxybenzyl)piperazine-1-carbonyl]-1-methyl-1H-indol-6-yloxy}pyridin-3-yl)benzamide hydrobromide] came in with a melting point of 242.5 to 246.7 °C.

Turning to `Br.CC(C)Oc1ccc(CN2CCN(C(=O)c3cc4ccc(Oc5ccc(NC(=O)c6ccc(Cl)c(Cl)c6)cn5)cc4n3C)CC2)cc1F` [Example 266, 3,4-Dichloro-N-(6-{2-[4-(3-fluoro-4-isopropoxybenzyl)piperazine-1-carbonyl]-1-methyl-1H-indol-6-yloxy}pyridin-3-yl)benzamide hydrobromide], the melting point lay in the range of 244.3 to 247 °C.

Consider `Br.Cn1c(C(=O)N2CCN(Cc3ccc(OCC(F)(F)F)cc3)CC2)cc2cc(Oc3ccc(NC(=O)c4ccc(C(F)(F)F)cc4O)cn3)ccc21` [Example 267, 2-Hydroxy-N-[6-(1-methyl-2-{4-[4-(2,2,2-trifluoroethoxy)benzyl]-piperazine-1-carbonyl}-1H-indol-5-yloxy)pyridin-3-yl]-4-tri-fluoromethylbenzamide hydrobromide], for which the melting point was 214 to 219 °C (dec.).

Take `Br.Cn1c(C(=O)N2CCN(Cc3ccc(OCC(F)F)cc3)CC2)cc2ccc(Oc3ccc(NC(=O)c4ccc(Cl)c(Cl)c4)cn3)cc21` [Example 268, 3,4-Dichloro-N-[6-(2-{4-[4-(2,2-difluoroethoxy)benzyl]piperazine-1-carbonyl}-1-methyl-1H-indol-6-yloxy)pyridin-3-yl]benzamide hydrobromide]: the melting point was in the range of 221.5 to 222.3 °C.

Take `Cc1ccc(C(=O)N(C)c2ccc(Oc3ccc4cc(C(=O)N5CCN(Cc6ccc(OC(F)F)cc6)CC5)n(C)c4c3)nc2)cc1` [Example 276, N-(6-{2-[4-(4-Difluoromethoxybenzyl)piperazine-1-carbonyl]-1-methyl-1H-indol-6-yloxy}pyridin-3-yl)-4,N-dimethylbenzamide]: the melting point was 140.1 to 141.3 °C.

As to `Br.CN(C(=O)c1ccc(OC(F)F)cc1)c1ccc(Oc2ccc3cc(C(=O)N4CCN(Cc5ccc(OC(F)F)cc5)CC4)n(C)c3c2)nc1` [Example 282, 4-Difluoromethoxy-N-(6-{2-[4-(4-difluoromethoxybenzyl)piperazine-1-carbonyl]-1-methyl-1H-indol-6-yloxy}pyridin-3-yl)-N-methyl-benzamide hydrobromide], the melting point lay within 198.7 to 200.5 °C.

`Br.CN(C(=O)c1ccc(OC(F)F)cc1)c1ccc(Oc2ccc3cc(C(=O)N4CCN(Cc5ccc(OCC(F)F)cc5)CC4)n(C)c3c2)nc1` [Example 283, N-[6-(2-{4-[4-(2,2-Difluoroethoxy)benzyl]piperazine-1-carbonyl}-1-methyl-1H-indol-6-yloxy)pyridin-3-yl]-4-difluoromethoxy-N-methylbenzamide hydrobromide] showed a melting point of 196.9 to 198.6 °C.

`Br.CN(C(=O)c1ccc(OC(F)F)cc1)c1ccc(Oc2ccc3cc(C(=O)N4CCN(Cc5ccc(OCC(F)(F)F)cc5)CC4)n(C)c3c2)nc1` [Example 284, 4-Difluoromethoxy-N-methyl-N-[6-(1-methyl-2-{4-[4-(2,2,2-tri-fluoroethoxy)benzyl]piperazine-1-carbonyl}-1H-indol-6-yloxy)-pyridin-3-yl]benzamide hydrobromide] yielded a melting point of 203.8 to 205.6 °C.

As to `CN(c1ccc(Oc2ccc3cc(C(=O)N4CCN(Cc5ccc(OCC(F)(F)F)cc5)CC4)[nH]c3c2)nc1)S(C)(=O)=O` [Example 285, N-Methyl-N-[6-(2-{4-[4-(2,2,2-trifluoroethoxy)benzyl]piperazine-1-carbonyl}-1H-indol-6-yloxy)pyridin-3-yl]methanesulfonamide], the melting point lay in the range of 167 to 168.1 °C.

With `Br.C[C@H]1CN(C(=O)c2cc3ccc(Oc4ccc(NC(=O)c5ccc(OC(F)(F)F)cc5)cn4)cc3n2C)CCN1Cc1ccc(OCC(F)(F)F)cc1` [Example 293, N-[6-(1-Methyl-2-{(S)-3-methyl-4-[4-(2,2,2-trifluoroethoxy)-benzyl]piperazine-1-carbonyl}-1H-indol-6-yloxy)pyridin-3-yl]-4-trifluoromethoxybenzamide hydrobromide], the melting point lay in the range of 199.4 to 203.1 °C.

`Br.Cc1cc(Oc2ccc3cc(C(=O)N4CCN(Cc5ccc(OC(F)F)cc5)CC4)n(C)c3c2)ncc1N(C)S(=O)(=O)c1ccc(Cl)c(Cl)c1` [Example 311, 3,4-Dichloro-N-(6-{2-[4-(4-difluoromethoxybenzyl)piperazine-1-carbonyl]-1-methyl-1H-indol-6-yloxy}-4-methylpyridin-3-yl)-N-methylbenzenesulfonamide hydrobromide] showed a melting point of 213.5 to 215.3 °C.

In turn, `Cc1cc(Oc2ccc3cc(C(=O)N4CCN(Cc5ccc(OC(C)C)cc5)CC4)n(C)c3c2)ncc1N(C)S(=O)(=O)c1ccc(Cl)c(Cl)c1` [Example 313, 3,4-Dichloro-N-(6-{2-[4-(4-isopropoxybenzyl)piperazine-1-carbonyl]-1-methyl-1H-indol-6-yloxy}-4-methylpyridin-3-yl)-N-methylbenzenesulfonamide] gave a melting point of 151 to 151.6 °C.

For the molecule `Br.Cn1c(C(=O)N2CCN(Cc3ccc4c(c3)OCO4)CC2)cc2cc(Oc3ccc(NC(=O)c4ccc(C(F)(F)F)cc4F)cn3)ccc21` [Example 316, N-{6-[2-(4-Benzo[1,3]dioxol-5-ylmethylpiperazine-1-carbonyl)-1-methyl-1H-indol-5-yloxy]pyridin-3-yl}-2-fluoro-4-trifluoromethyl-benzamide hydrobromide], the melting point was 254 to 257 °C (dec.).

`Br.CN(C(=O)c1ccc(C(F)(F)F)cc1F)c1ccc(Oc2ccc3c(c2)cc(C(=O)N2CCN(Cc4ccc5c(c4)OCO5)CC2)n3C)nc1` [Example 319, N-{6-[2-(4-Benzo[1,3]dioxol-5-ylmethylpiperazine-1-carbonyl)-1-methyl-1H-indol-5-yloxy]pyridin-3-yl}-2-fluoro-N-methyl-4-tri-fluoromethylbenzamide hydrobromide] had a melting point of 187 to 190 °C.

On to `Br.COc1ccc(CN2CCN(C(=O)c3cc4ccc(Oc5ccc(N(C)C(=O)c6ccc(C(F)(F)F)cc6)cn5)cc4n3C)CC2)cc1` [Example 322, N-(6-{2-[4-(4-Methoxybenzyl)piperazine-1-carbonyl]-1-methyl-1H-indol-6-yloxy}pyridin-3-yl)-N-methyl-4-trifluoromethylbenzamide hydrobromide], for which the melting point is 233 to 235 °C.

Regarding `COc1ccc(CN2CCN(C(=O)c3cc4cccc(Oc5ccc(N(C)C(=O)c6ccc(C(F)(F)F)cc6)cn5)c4n3C)CC2)cc1.O=C(O)C(=O)O` [Example 323, N-(6-{2-[4-(4-Methoxybenzyl)piperazine-1-carbonyl]-1-methyl-1H-indol-7-yloxy}pyridin-3-yl)-N-methyl-4-trifluoromethylbenzamide oxalate], the melting point was in the range of 134 to 135 °C.

The molecule `Br.CN(C(=O)c1ccc(C(F)(F)F)cc1)c1ccc(Oc2cccc3cc(C(=O)N4CCN(Cc5ccc(C#N)cc5)CC4)n(C)c23)nc1` [Example 324, N-(6-{2-[4-(4-Cyanobenzyl)piperazine-1-carbonyl]-1-methyl-1H-indol-7-yloxy}pyridin-3-yl)-N-methyl-4-trifluoromethylbenzamide hydrobromide] returned a melting point of 200 to 201 °C.

In the case of `COc1ccc(CN2CCN(C(=O)c3cc4c(Oc5ccc(N(C)C(=O)c6ccc(C(F)(F)F)cc6)cn5)cccc4n3C)CC2)cc1.O=C(O)C(=O)O` [Example 325, N-(6-{2-[4-(4-Methoxybenzyl)piperazine-1-carbonyl]-1-methyl-1H-indol-4-yloxy}pyridin-3-yl)-N-methyl-4-trifluoromethylbenzamide oxalate], the melting point lay within 139 to 141 °C.

`Br.CN(C(=O)c1ccc(C(F)(F)F)cc1)c1ccc(Oc2cccc3c2cc(C(=O)N2CCN(Cc4ccc(C#N)cc4)CC2)n3C)nc1` [Example 326, N-(6-{2-[4-(4-Cyanobenzyl)piperazine-1-carbonyl]-1-methyl-1H-indol-4-yloxy}pyridin-3-yl)-N-methyl-4-trifluoromethylbenzamide hydrobromide] registered a melting point of 273 to 276 °C.

`Br.CN(C(=O)c1ccc(C(F)(F)F)cc1)c1ccc(Oc2ccc3c(c2)cc(C(=O)N2CCN(Cc4ccccc4)CC2)n3C)nc1` [Example 329, N-{6-[2-(4-Benzylpiperazine-1-carbonyl)-1-methyl-1H-indol-5-yl-oxy]pyridin-3-yl}-N-methyl-4-trifluoromethylbenzamide hydrobromide] came in with a melting point of 189 to 201 °C.

Take `Br.CN(C(=O)c1ccc(Cl)c(Cl)c1)c1ccc(Oc2ccc3c(c2)cc(C(=O)N2CCN(Cc4ccccc4)CC2)n3C)nc1` [Example 330, N-{6-[2-(4-Benzylpiperazine-1-carbonyl)-1-methyl-1H-indol-5-yl-oxy]pyridin-3-yl}-3,4-dichloro-N-methylbenzamide hydrobromide]: the melting point fell in the range of 210 to 213 °C.

`Cn1c(C(=O)N2CCN(C3CCOCC3)CC2)cc2cc(Oc3ccc(NS(=O)(=O)c4ccc(Cl)c(Cl)c4)cn3)ccc21` [Example 331, 3,4-Dichloro-N-(6-{1-methyl-2-[4-(tetrahydropyran-4-yl)-piperazine-1-carbonyl]-1H-indol-5-yloxy}pyridin-3-yl)-benzenesulfonamide] gave a melting point of 208 to 210 °C.

The molecule `Cn1c(C(=O)N2CCN(C3CCOCC3)CC2)cc2cc(Oc3ccc(NS(=O)(=O)c4ccc(C(F)(F)F)cc4)cn3)ccc21` [Example 332, N-(6-{1-Methyl-2-[4-(tetrahydropyran-4-yl)piperazine-1-carbonyl]-1H-indol-5-yloxy}pyridin-3-yl)-4-trifluoromethylbenzene-sulfonamide] registered a melting point of 174 to 178 °C.

`Br.Cn1c(C(=O)N2CCN(Cc3ccc4c(c3)OCO4)CC2)cc2cc(Oc3ccc(NCc4ccc(Cl)c(Cl)c4)cn3)ccc21` [Example 333, (4-Benzo[1,3]dioxol-5-ylmethylpiperazin-1-yl)(5-{5-[(3,4-di-chlorophenyl)methylamino]pyridin-2-yloxy}-1-methyl-1H-indol-2-yl)methanone hydrobromide]: the melting point fell in the range of 205 to 214 °C.
